Reference: patent US8993574B2, “Pyrrole antifungal agents” (F2G Ltd, priority 2008, dated 2015)

What was measured:
Assay type in all cases: cell-based
Aspergillus niger [1] = test: MIC, RPMI medium; settings: MIC banded into grades
Procedure, shortened: (§1)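 Broth microdilution in RPMI medium with 2% glucose and 0.135 M MOPS (pH 7.0); compounds as doubling dilutions over 50-0.05 mg/L, inoculum 1−2×10^4 cfu/mL. Plates incubated 24-48 h at 35° C; OD 485 nm read, MIC being lowest concentration giving >80% growth inhibition versus drug-free control.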

Aspergillus flavus [2] = test: MIC, RPMI medium; settings: MIC banded into grades
Procedure, shortened: as §1

Aspergillus terreus AT4 [3] = test: MIC, RPMI medium; settings: MIC banded into grades
Procedure, shortened: as §1

Candida glabrata = test: MIC, RPMI medium; settings: 24-48 h at 35° C., >80% growth inhibition, banded into grades
Procedure, shortened: as §1

Candida krusei = test: MIC, RPMI medium; settings: 24-48 h at 35° C., >80% growth inhibition, banded into grades
Procedure, shortened: as §1

Candida parapsilosis = test: MIC, RPMI medium; settings: 24-48 h at 35° C., >80% growth inhibition, banded into grades
Procedure, shortened: as §1

[4] = tested on: Aspergillus fumigatus AF293; test: MIC, RPMI medium; settings: MIC banded into grades
Procedure, shortened: as §1

Aspergillus terreus AT49 [5] = test: MIC, RPMI medium; settings: MIC banded into grades
Procedure, shortened: as §1

Candida albicans = test: MIC, RPMI medium; settings: 24-48 h at 35° C., >80% growth inhibition, banded into grades
Procedure, shortened: as §1

Candida tropicalis = test: MIC, RPMI medium; settings: 24-48 h at 35° C., >80% growth inhibition, banded into grades
Procedure, shortened: as §1

[6] = tested on: Aspergillus fumigatus AF210; test: MIC, RPMI medium; settings: MIC banded into grades
Procedure, shortened: as §1

Aspergillus niger [7] = test: MIC, YAG medium; settings: 24 h at 35° C, MIC banded into grades
Procedure, shortened: (§2)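 Growth inhibition was measured by absorbance at 485 nm following 24 h at 35° C. Spores harvested after 5 days on Sabouraud agar served as inoculum (1−2×10^4 cfu/mL, YAG medium). The lowest drug level producing >70% inhibition was taken as MIC.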

Aspergillus flavus [8] = test: MIC, YAG medium; settings: 24 h at 35° C, MIC banded into grades
Procedure, shortened: as §2

Aspergillus terreus AT4 [9] = test: MIC, YAG medium; settings: 24 h at 35° C, MIC banded into grades
Procedure, shortened: as §2

[10] = tested on: Aspergillus fumigatus AF293; test: MIC, YAG medium; settings: 24 h at 35° C, MIC banded into grades
Procedure, shortened: as §2

Aspergillus terreus AT49 [11] = test: MIC, YAG medium; settings: 24 h at 35° C, MIC banded into grades
Procedure, shortened: as §2

[12] = tested on: Aspergillus fumigatus AF210; test: MIC, YAG medium; settings: 24 h at 35° C, MIC banded into grades
Procedure, shortened: as §2

SMILES: COCCn1ccc(C2CCC2)c1C(=O)C(=O)Nc1ccc(N2CCN(c3cc(C)cc(C)n3)CC2)cc1 [Example 104, 2-[3-Cyclobutyl-1-(2-methoxy-ethyl)-1H-pyrrol-2-yl]-N-{4-[4-(4,6-dimethyl-pyridin-2-yl)-piperizin-1-yl]-phenyl}-2-oxo-acetamide]
- MIC grade, A. niger (Aspergillus niger [1]): 1 (a grade of 1 represents an MIC of greater than 10 mg/L)
- MIC grade, A. flavus (Aspergillus flavus [2]): 1 (a grade of 1 represents an MIC of greater than 10 mg/L)
- MIC grade, A. terreus (Aspergillus terreus AT4 [3]): 1 (a grade of 1 represents an MIC of greater than 10 mg/L)
- Candida MIC, C. glabrata (Candida glabrata): 3 (A grade of 3 represents an MIC of less than 1 mg/L)
- Candida MIC, C. krusei (Candida krusei): 2 (A grade of 2 represents an MIC of from 1 to 10 mg/L)
- Candida MIC, C. parapsilosis (Candida parapsilosis): 3 (A grade of 3 represents an MIC of less than 1 mg/L)
- MIC grade, A. fumigatus [4]: 1 (a grade of 1 represents an MIC of greater than 10 mg/L)
- MIC grade, A. terreus 49 (Aspergillus terreus AT49 [5]): 1 (a grade of 1 represents an MIC of greater than 10 mg/L)
- Candida MIC, C. albicans (Candida albicans): 2 (A grade of 2 represents an MIC of from 1 to 10 mg/L)
- Candida MIC, C. tropicalis (Candida tropicalis): 3 (A grade of 3 represents an MIC of less than 1 mg/L)
- MIC grade, A. fumigatus 210 [6]: 1 (a grade of 1 represents an MIC of greater than 10 mg/L)
- MIC grade, A. niger (Aspergillus niger [7]): 1 (a grade of 1 represents an MIC of greater than 10 mg/L)
- MIC grade, A. flavus (Aspergillus flavus [8]): 1 (a grade of 1 represents an MIC of greater than 10 mg/L)
- MIC grade, A. terreus (Aspergillus terreus AT4 [9]): 2 (A grade of 2 represents an MIC of from 1 to 10 mg/L)
- MIC grade, A. fumigatus [10]: 2 (A grade of 2 represents an MIC of from 1 to 10 mg/L)
- MIC grade, A. terreus 49 (Aspergillus terreus AT49 [11]): 2 (A grade of 2 represents an MIC of from 1 to 10 mg/L)
- MIC grade, A. fumigatus 210 [12]: 2 (A grade of 2 represents an MIC of from 1 to 10 mg/L)
